Test results: ChEMBL document CHEMBL3301472, “MMV Malaria Box HIV and cytotoxicity screening”

Assays:
Format in all cases: toxicity, cell-based
[1] = MMV: MTT Cytotoxicity Assay Day 3 pi, U87-CD4-CCR5 cells, % cell death @ 5mM compound; details: human, u87-cd4-ccr5, 5000 µM
[2] = MMV: MTT Cytotoxicity Assay Day 7 pi of Assay #11 (NO washout), U87-CD4-CXCR4 cells, % cell death @ 5mM compound; details: human, u87-cd4-cxcr4, 5000 µM
[3] = MMV: MTT Cytotoxicity Assay Day 7 pi of Assay #10 (NO washout), U87-CD4-CCR5 cells, % cell death @ 5mM compound; details: human, u87-cd4-ccr5, 5000 µM
[4] = MMV: MTT Cytotoxicity Assay Day 7 pi of Assay #6 (compound washed out Day 1 pi), U87-CD4-CCR5 cells, % cell death @ 5mM compound; details: human, u87-cd4-ccr5, 5000 µM
[5] = MMV: MTT Cytotoxicity Assay Day 7 pi of Assay #7 (compound washed out Day 1 pi), U87-CD4-CXCR4 cells, % cell death @ 5mM compound; details: human, u87-cd4-cxcr4, 5000 µM
[6] = MMV: MTT Cytotoxicity Assay Day 3 pi, U87-CD4-CXCR4 cells, % cell death @ 5mM compound; details: human, u87-cd4-cxcr4, 5000 µM

Compound | % Cell Death [1] | % Cell Death [2] | % Cell Death [3] | % Cell Death [4] | % Cell Death [5] | % Cell Death [6]
OC(CNC1CCCC1)Cn1c2ccccc2c2ccccc21 (stereo not given) | 10 | -3 | 7 | 2 | -15 | 31
CCOc1c(Cl)cc(CNCC(O)c2ccccc2)cc1OC (stereo not given) | 14 | -40 | 2 | 20 | -17 | 21
O=C(Nc1ccc(CN2CCOCC2)cc1)c1ccc(-c2ccc(Br)cc2)o1 | 20 | 6 | 96 | 14 | -2 | 15
c1ccc2cc3c(Nc4ccc(N5CCOCC5)cc4)ccnc3cc2c1 | 91 | 108 | 106 | 99 | 98 | 97
c1ccc(Cn2c(N=Nc3c(Nc4ccccc4)ccc4ccccc34)nc3ccccc32)cc1 | 92 | 101 | 83 | 95 | 99 | 97
Cc1ccc(-c2cc3c(SCC(=O)Nc4cc(C(F)(F)F)ccc4Cl)nccn3n2)cc1 | 18 | 2 | 24 | 12 | -26 | 35
CCOC(=O)c1cnc2ccc(Cl)cc2c1NCCCN(C)C | 17 | -22 | -6 | 3 | -14 | 26
O=C1c2ccccc2-c2nnc(-c3ccc(Br)cc3)cc21 | 2 | -24 | 24 | 1 | 4 | 16
CCOc1ccc(-n2cc(-c3ccccc3)c3c(SCc4cc(C)ccc4C)ncnc32)cc1 | 3 | 11 | -1 | 11 | -9 | 29
CC(=O)c1sc(NC(=O)Nc2ccc(C)cc2C)nc1C | -1 | 20 | 31 | -30 | -18 | 45
COc1ccc(-c2nonc2NC(=O)c2cccc(C)c2)cc1OC | 13 | -3 | -7 | -21 | -11 | 11
COc1ccc(C=C2SC(=N)N(c3ccccc3OC)C2=O)cc1 | 100 | 93 | 143 | 100 | 95 | 101
COc1ccccc1CNC(=O)CCn1c(=O)[nH]c2ccccc2c1=O | -7 | -16 | 16 | 7 | -15 | 12
COc1cc(-c2nc(-c3ccc(Sc4ccccc4)cc3)c(-c3ccccc3)[nH]2)cc(OC)c1O | 18 | -41 | 33 | 5 | -13 | 29
OCCNc1nc(Nc2ccc(Cl)c(Cl)c2)nc2ccccc12 | 41 | -59 | 51 | -18 | -3 | 30
O=C(Nc1ccc(-c2nc3cc(NC(=O)c4ccc(Cl)cc4)ccc3[nH]2)cc1)c1ccc(Cl)cc1 | -28 | -10 | -18 | -14 | -23 | 37
CC(C)(C)CC(C)(C)NCC(O)COc1ccc(Cl)cc1Cl (stereo not given) | -7 | 8 | -1 | -12 | -31 | 39
COc1cc(SC)ccc1C(=O)N1CCCC(C)C1 (stereo not given) | 9 | -41 | -5 | 12 | -26 | 28
O=C(CSc1ccc2nnc(-c3cccc(F)c3)n2n1)Nc1ccc2c(c1)OCO2 | 82 | 100 | 94 | 63 | 48 | 54
CCOC(=O)c1cn(CC)c2cc(N3CCCCC3)c(F)cc2c1=O | 106 | 103 | 115 | 99 | 97 | 101
O=C(Nc1ccc(CN2CCOCC2)cc1)c1ccc(-c2cc(Cl)ccc2Cl)o1 | -2 | 36 | 41 | -8 | -21 | 28
CCCc1c(CC)c(=N)c2ccccc2n1C | 33 | -23 | -7 | -10 | -9 | 21
Cc1sc(NC(=O)c2ccccc2)c(C(c2cccs2)N2CCN(c3ccccc3)CC2)c1C (stereo not given) | -1 | -15 | 95 | -19 | 4 | 45
CCOc1c(Cl)cc(CNC(C)C(O)c2ccccc2)cc1OC (stereo not given) | -4 | -28 | 98 | 0 | -15 | 22
CCOc1cc(Cl)c(C(C)NC(=O)c2cccc(OC)c2)cc1OCC (stereo not given) | -1 | 28 | 24 | 10 | 16 | 37
CNCCCNc1ccnc2cc(Cl)ccc12 | 108 | 100 | 124 | 97 | 98 | 100
Cl.Cn1c(=O)n(C)c2cc(CNCCNc3ccnc4cc(Cl)ccc34)ccc21 | 46 | 45 | 23 | 34 | 31 | 65
COCCNCC(O)Cn1c2ccc(Cl)cc2c2cc(Cl)ccc21 (stereo not given) | 29 | 15 | 28 | 14 | -16 | 30
Cc1ccc(Cl)cc1N1CCN(CCCNC(=O)C2CCN(c3nc4ccccc4[nH]3)CC2)CC1 | 86 | 57 | 91 | 31 | -32 | 6
CCOC(=O)c1ccc2[nH]c(-c3ccccc3)cc(=O)c2c1 | 104 | 99 | 129 | 98 | 96 | 99
